Source: ChEMBL document CHEMBL4665754, “Discovery of a coumarin derivative as Nrf2 activator mitigating oxidative stress and fibrosis in mesangial cells under high glucose” (Bioorg Med Chem Lett, 2020)
The source made the active and inactive calls. The calls are words filed in the database; no cut-off is given here.

Assays:
[1] = Cytotoxicity against Mesangial cell (unknown origin) at 0.01 to 100 uM by CCK8 assay; assay type: tissue-based; settings: dose 0.01-100 µM
[2] = target: T1, Keap1/Nrf2 (Homo sapiens) (UniProt Q16236+Q14145); assay: Disruption of interaction between Nrf2/Keap1 (unknown origin) in mesangial cells assessed as reduction in high glucose-induced intracellular MDA level at 10 uM; assay type: cell-based; settings: Mesangial cell
Mesangial cell [3] = assay: Inhibition of glucose-induced cell proliferation in Mesangial cell (unknown origin) at 10 uM by CCK8 assay; assay type: functional, tissue-based
[4] = target: T1, Keap1/Nrf2 (Homo sapiens); assay: Disruption of interaction between Nrf2/Keap1 (unknown origin) in mesangial cells assessed as reduction in high glucose-induced collagen IV secretion at 10 uM by ELISA; assay type: cell-based; settings: Mesangial cell
Mesangial cell [5] = assay: Inhibition of glucose-induced cell proliferation in Mesangial cell (unknown origin) at 5 and 10 uM by CCK8 assay; assay type: functional, tissue-based; settings: dose microM 5-10
[6] = target: T1, Keap1/Nrf2 (Homo sapiens); assay: Disruption of interaction between Nrf2/Keap1 (unknown origin) in mesangial cell assessed as increase of Nrf2 immunoprecipitate at 10 uM in presence of high glucose by Co-immunoprecipitation assay; assay type: tissue-based
[7] = target: T1, Keap1/Nrf2 (Homo sapiens); assay: Disruption of interaction between Nrf2/Keap1 (unknown origin) in mesangial cells assessed as reduction in high glucose-induced intracellular ROS production at 5 to 10 uM by DCFH-DA assay; assay type: cell-based; settings: Mesangial cell, dose microM 5-10
[8] = target: T1, Keap1/Nrf2 (Homo sapiens); assay: Disruption of interaction between Nrf2/Keap1 (unknown origin) in mesangial cell assessed as decrease in Keap1 immunoprecipitate at 10 uM in presence of high glucose by Co-immunoprecipitation assay; assay type: tissue-based
[9] = target: T2, Nuclear factor erythroid 2-related factor 2 (Homo sapiens) (UniProt Q16236); assay: Activation of Nrf2 (unknown origin) in mesangial cell assessed as increase in translocation of Nrf2 into nuclei from cytosol at 5 to 10 uM in presence of high glucose by Western blot based densitometric assay; assay type: tissue-based; settings: dose microM 5-10
T2 sequence (whole entry): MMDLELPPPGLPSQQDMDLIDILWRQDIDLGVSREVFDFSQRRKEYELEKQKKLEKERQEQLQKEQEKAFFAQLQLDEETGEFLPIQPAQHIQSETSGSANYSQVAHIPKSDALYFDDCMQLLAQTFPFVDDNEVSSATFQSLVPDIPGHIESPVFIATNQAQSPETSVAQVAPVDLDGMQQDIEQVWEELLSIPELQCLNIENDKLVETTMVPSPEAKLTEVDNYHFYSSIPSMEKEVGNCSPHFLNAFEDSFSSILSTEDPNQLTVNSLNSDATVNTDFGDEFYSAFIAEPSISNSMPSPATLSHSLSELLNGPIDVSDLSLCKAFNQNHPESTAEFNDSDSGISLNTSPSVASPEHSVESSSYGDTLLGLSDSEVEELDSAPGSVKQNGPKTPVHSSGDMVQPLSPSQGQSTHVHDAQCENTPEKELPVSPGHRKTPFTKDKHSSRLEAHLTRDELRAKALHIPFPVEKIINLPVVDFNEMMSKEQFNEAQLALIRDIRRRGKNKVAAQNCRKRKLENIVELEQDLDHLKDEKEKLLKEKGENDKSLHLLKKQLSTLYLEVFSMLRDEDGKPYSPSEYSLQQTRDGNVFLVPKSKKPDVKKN

[10] = target: T1, Keap1/Nrf2 (Homo sapiens); assay: Disruption of interaction between Nrf2/Keap1 (unknown origin) in mesangial cells assessed as reduction in high glucose-induced intracellular ROS production at 10 uM in presence of 10 uM ML385 by DCFH-DA assay; assay type: cell-based; settings: Mesangial cell
[11] = target: T1, Keap1/Nrf2 (Homo sapiens); assay: Disruption of interaction between Nrf2/Keap1 (unknown origin) in mesangial cells assessed as reduction in high glucose-induced fibronectin secretion at 10 uM in presence of 10 uM ML385 by ELISA; assay type: cell-based; settings: Mesangial cell
[12] = target: T1, Keap1/Nrf2 (Homo sapiens); assay: Disruption of interaction between Nrf2/Keap1 (unknown origin) in mesangial cells assessed as reduction in high glucose-induced fibronectin secretion at 5 to 10 uM by ELISA; assay type: cell-based; settings: Mesangial cell, dose microM 5-10
[13] = target: T2, Nuclear factor erythroid 2-related factor 2 (Homo sapiens); assay: Activation of Nrf2 (unknown origin) in mesangial cell assessed as strong red fluorescence at 5 and 10 uM in presence of high glucose by immunofluorescence staining based assay; assay type: tissue-based; settings: dose microM 5-10
[14] = target: T2, Nuclear factor erythroid 2-related factor 2 (Homo sapiens); assay: Activation of Nrf2 (unknown origin) in mesangial cell at 5 and 10 uM in presence of high glucose by Western blot based densitometric assay; assay type: tissue-based; settings: dose microM 5-10
[15] = target: T1, Keap1/Nrf2 (Homo sapiens); assay: Disruption of interaction between Nrf2/Keap1 (unknown origin) in mesangial cells assessed as reduction in high glucose-induced intracellular MDA level at 10 uM in presence of 10 uM ML385; assay type: cell-based; settings: Mesangial cell
[16] = target: T1, Keap1/Nrf2 (Homo sapiens); assay: Disruption of interaction between Nrf2/Keap1 (unknown origin) in mesangial cells assessed as reduction in high glucose-induced collagen IV secretion at 5 to 10 uM by ELISA; assay type: cell-based; settings: Mesangial cell, dose microM 5-10
[17] = target: T2, Nuclear factor erythroid 2-related factor 2 (Homo sapiens); assay: Activation of Nrf2 (unknown origin) in mesangial cell assessed as increase in transcription ability of Nrf2 binding to ARE by measuring increase luciferase activity at 5 to 10 uM in presence of high glucose by luciferase reporter gene assay; assay type: tissue-based; settings: dose microM 5-10
[18] = target: T1, Keap1/Nrf2 (Homo sapiens); assay: Disruption of interaction between Nrf2/Keap1 (unknown origin) in mesangial cells assessed as reduction in high glucose-induced collagen IV secretion at 10 uM in presence of 10 uM ML385 by ELISA; assay type: cell-based; settings: Mesangial cell
[19] = target: T1, Keap1/Nrf2 (Homo sapiens); assay: Disruption of interaction between Nrf2/Keap1 (unknown origin) in mesangial cells assessed as reduction in high glucose-induced intracellular MDA level at 5 to 10 uM; assay type: cell-based; settings: Mesangial cell, dose microM 5-10

T1 sequence (Q14145 whole entry, looked up, one chain of several): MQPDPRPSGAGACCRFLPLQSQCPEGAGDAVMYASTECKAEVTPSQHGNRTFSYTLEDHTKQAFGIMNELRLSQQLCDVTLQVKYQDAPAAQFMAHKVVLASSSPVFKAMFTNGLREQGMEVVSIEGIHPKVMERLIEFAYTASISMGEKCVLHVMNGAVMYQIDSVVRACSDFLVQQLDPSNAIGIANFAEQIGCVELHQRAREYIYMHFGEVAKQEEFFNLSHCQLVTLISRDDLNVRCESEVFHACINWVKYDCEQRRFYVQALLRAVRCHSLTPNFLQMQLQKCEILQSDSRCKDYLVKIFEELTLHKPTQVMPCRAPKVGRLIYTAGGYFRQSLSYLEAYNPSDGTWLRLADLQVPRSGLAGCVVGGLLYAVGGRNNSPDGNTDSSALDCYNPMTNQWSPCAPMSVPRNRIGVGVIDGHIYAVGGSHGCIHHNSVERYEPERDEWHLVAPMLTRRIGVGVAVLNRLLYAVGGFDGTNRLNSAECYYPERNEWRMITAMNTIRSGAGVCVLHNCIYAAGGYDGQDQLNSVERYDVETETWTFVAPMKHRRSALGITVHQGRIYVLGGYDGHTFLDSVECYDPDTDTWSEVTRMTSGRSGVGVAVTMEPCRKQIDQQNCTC

Row | SMILES | Activity [1] | inhibition [2] | inhibition (Mesangial cell [3]) | inhibition [4] | inhibition (Mesangial cell [5]) | Activity [6] | inhibition [7] | Activity [8] | Activity [9] | inhibition [10] | inhibition [11] | inhibition [12] | Activity [13] | Activity [14] | inhibition [15] | inhibition [16] | Activity [17] | inhibition [18] | inhibition [19]
1 | COc1cc2cc(Oc3ccc4ccc(=O)oc4c3)c(=O)oc2cc1O [DAPHNORETIN] | Non-Toxic | Active | Active | Active | – | – | – | – | – | – | – | – | – | – | – | – | – | – | –
2 | O=c1ccc2ccc(Oc3cc4ccc(O)cc4oc3=O)cc2o1 [EDGEWORIN] | Non-Toxic | Active | Active | Active | – | – | – | – | – | – | – | – | – | – | – | – | – | – | –
3 | COc1cc2cc(Oc3ccc4ccc(=O)oc4c3)c(=O)oc2cc1O[C@@H]1O[C@H](CO)[C@@H](O)[C@H](O)[C@H]1O [DAPHNORIN] | Non-Toxic | – | – | – | Active | Active | Active | Active | Active | inactive | inactive | Active | Active | Active | inactive | Active | Active | inactive | Active
4 | O=c1ccc2ccc(Oc3cc4ccc(=O)oc4cc3O)cc2o1 | Non-Toxic | Active | Active | Active | – | – | – | – | – | – | – | – | – | – | – | – | – | – | –
